Earlier results, collected in patent US20110165241A1, “BAZEDOXIFENE FORMULATIONS WITH ANTIOXIDANTS” (Wyeth LLC, priority 2009, published 2011).

Columns and labels:
[1] = test system: uterine response; conditions: in vivo
[2] = test system: MCF-7 cell line (human breast cancer cell line)
[3] = test system: ovariectomized rat model of osteopenia; conditions: in vivo

With `Cc1c(-c2ccc(O)cc2)n(Cc2ccc(OCCN3CCCCCC3)cc2)c2ccc(O)cc12` [bazedoxifene, 1-[4-(2-azepan-1-yl-ethoxy)-benzyl]-2-(4-hydroxy-phenyl)-3-methyl-1H-indol-5-ol] as the compound, how does the “stimulation of uterine response” value [1] read?
Its value is “little or no stimulation of uterine response”.

And the “estrogen receptor activity in MCF-7 cells” value [2]?
The value was “behaves as an estrogen antagonist”.

What about the “effect on bone loss and cholesterol” value [3] of the same compound?
The value was “estrogen agonist-like effect in preventing bone loss and reducing cholesterol”.
